Experimental data: patent publication US9505781B2, “Compositions comprising thienopyrimidine and thienopyridine compounds and methods of use thereof” (The Regents of the University of Michigan, priority 2013, dated 2016)

Biological target: T1, menin-MLL interaction (Homo sapiens, UniProt O00255)
T1 sequence (O00255 1-610): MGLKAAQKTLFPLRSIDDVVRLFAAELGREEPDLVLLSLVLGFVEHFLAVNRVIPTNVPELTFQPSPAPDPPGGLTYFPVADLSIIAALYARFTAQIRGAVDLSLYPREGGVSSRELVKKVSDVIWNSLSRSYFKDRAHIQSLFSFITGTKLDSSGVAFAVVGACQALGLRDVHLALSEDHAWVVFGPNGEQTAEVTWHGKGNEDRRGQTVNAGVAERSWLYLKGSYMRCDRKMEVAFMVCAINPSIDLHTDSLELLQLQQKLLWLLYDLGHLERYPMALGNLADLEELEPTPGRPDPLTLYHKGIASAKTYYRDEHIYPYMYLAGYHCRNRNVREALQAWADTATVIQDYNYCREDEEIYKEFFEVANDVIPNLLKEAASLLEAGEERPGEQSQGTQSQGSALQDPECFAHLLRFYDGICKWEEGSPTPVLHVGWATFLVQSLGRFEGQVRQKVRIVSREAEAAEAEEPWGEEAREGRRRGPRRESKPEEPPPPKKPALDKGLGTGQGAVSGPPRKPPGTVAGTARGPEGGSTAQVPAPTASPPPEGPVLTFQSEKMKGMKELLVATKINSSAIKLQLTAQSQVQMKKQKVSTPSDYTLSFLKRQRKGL
Assay: biochemical
Source text: Compounds that inhibit the interaction decrease the fluorescence anisotropy which is being used as a read-out for compound screening and for IC50 determination.

| SMILES | IC50 |
| --- | --- |
| Cc1c(CN2CCC(Nc3ncnc4sc(CC(F)(F)F)cc34)CC2)ccc2c1cc(C#N)n2CCO [Compound 299] | < 100 nM |
| Cc1c(CN2CCC(Nc3ncnc4sc(CC(F)(F)F)cc34)CC2)ccc2c1cc(C#N)n2CCN1CCN(C(=O)N(C)C)CC1 [Compound 376] | < 100 nM |
| CCCCC(O)(CO)Cn1c(C#N)cc2c(C)c(CN3CCC(Nc4ncnc5sc(CC(F)(F)F)cc45)CC3)ccc21 (stereo not shown) [Compound 338] | < 100 nM |
| CC(c1cc2c(N3CCN(C4=NCC(C)(C)S4)CC3)ncnc2s1)C(F)(F)F (stereo not shown) [Compound 38] | 500 to 2000 nM |
| CS(=O)(=O)Nc1ccc(CC(=O)N2CCN(C3=NC=NC4SC(CC(F)(F)F)=CC34)CC2)c(Cl)c1 (stereo not shown) [Compound 64] | < 100 nM |
| CCN(c1ccc(CC(=O)N2CCN(C3=NC=NC4SC(CC(F)(F)F)=CC34)CC2)c(Cl)c1)S(C)(=O)=O (stereo not shown) [Compound 66] | < 100 nM |
| OCc1cc(O)ccc1CN1CCC(Nc2ncnc3sc(CC(F)(F)F)cc23)CC1 [Compound 107] | 100 to 500 nM |
| Cc1cc(Cn2c(C#N)cc3c(C)c(CN4CCC(Nc5ncnc6sc(CC(F)(F)F)cc56)CC4)ccc32)[nH]n1 [Compound 365] | < 100 nM |
| Cc1c(CN2CCC(Nc3ncnc4sc(CC(F)(F)F)cc34)CC2)ccc2c1cc(C#N)n2CCN1CCCCC1 [Compound 329] | < 100 nM |
| Nc1ccc(CN2CCC(Nc3ncnc4sc(CC(F)(F)F)cc34)CC2)cc1 [Compound 139] | 500 to 2000 nM |
| Cc1c(CN2CCC(Nc3ncnc4sc(CC(F)(F)F)cc34)CC2)ccc2c1cc(C#N)n2CCN1CCOC(CO)C1 (stereo not shown) [Compound 362] | < 100 nM |
| NS(=O)(=O)Cc1ccc(CC(=O)N2CCN(c3ncnc4sc(CC(F)(F)F)cc34)CC2)cc1 [Compound 44, (4-(2-oxo-2-(4-(6-(2,2,2-trifluoroethyl)thieno[2,3-d]pyrimidin-4-yl)piperazin-1-yl)ethyl)phenyl)methanesulfonamide] | < 100 nM |
| Cc1c(CN2CCC(Nc3ncnc4sc(CC(F)(F)F)cc34)CC2)ccc2c1cc(C#N)n2CC1CN(C)C(=O)CO1 (stereo not shown) [Compound 426] | < 100 nM |
| Oc1cccc(CN2CCC(Nc3ncnc4sc(CC(F)(F)F)cc34)CC2)c1 [Compound 109] | 100 to 500 nM |
| O=C1CCC(c2ccc(CC(=O)N3CCN(c4ncnc5sc(CC(F)(F)F)cc45)CC3)cc2)N1 (stereo not shown) [Compound 80] | 100 to 500 nM |
| N#Cc1cc2cc(CN3CCC(Nc4c(CO)cnc5sc(CC(F)(F)F)cc45)CC3)ccc2[nH]1 [Compound 278] | < 100 nM |
| Cc1c(CN2CCC(Nc3ncnc4sc(CC(F)(F)F)cc34)CC2)ccc2c1cc(C#N)n2CCc1cccnc1 [Compound 328] | < 100 nM |
| CC(=O)Nc1ccc(CN2CCC(Nc3ncnc4sc(CC(F)(F)F)cc34)CC2)cc1 [Compound 130] | 100 to 500 nM |
| N#Cc1cc2cc(CN3CCC(Nc4ncnc5sc(CC(F)(F)F)cc45)CC3)c(F)cc2n1CC(N)=O [Compound 214] | < 100 nM |
| FC(F)(F)Cc1cc2c(NC3CCN(Cc4ccccc4Cl)CC3)ncnc2s1 [Compound 119] | 100 to 500 nM |
| CCCc1cc2c(N3CCN(c4nnc(C(F)(F)F)s4)CC3)ncnc2s1 [Compound 33] | 500 to 2000 nM |
| N#Cc1cc2cc(CN3CCC(Nc4ncnc5sc(CC(F)(F)F)cc45)CC3)ccc2n1CCC(N)=O [Compound 194] | < 100 nM |
| OCc1cnc2sc(CC(F)(F)F)cc2c1NC1CCN(Cc2ccccc2)CC1 [Compound 280] | < 100 nM |
| Oc1ccccc1CN1CCC(Nc2ncnc3sc(CC(F)(F)F)cc23)CC1 [Compound 114] | 100 to 500 nM |
| N#Cc1cc2cc(CN3CCC(Nc4ncnc5sc(CC(F)(F)F)cc45)CC3)ccc2n1CC(O)(CO)CN1CCOCC1 (stereo not shown) [Compound 333] | < 100 nM |
| FC(F)(F)Cc1cc2c(NCC3CCN(Cc4ccccc4C(F)(F)F)CC3)ncnc2s1 [Compound 274] | 500 to 2000 nM |

| SMILES | IC50 |
| --- | --- |
| Oc1cccc(O)c1CN1CCC(Nc2ncnc3sc(CC(F)(F)F)cc23)CC1 [Compound 111] | 100 to 500 nM |
| N#Cc1cc2c(CN)c(CN3CCC(Nc4ncnc5sc(CC(F)(F)F)cc45)CC3)ccc2[nH]1 [Compound 294] | < 100 nM |
| N#Cc1cc2cc(CN3CCC(Nc4ncnc5sc(CC(F)(F)F)cc45)CC3)ccc2n1Cc1cc(OCCC2CC2)n[nH]1 [Compound 412] | 100 to 500 nM |
| N#Cc1cc2cc(CN3CCC(Nc4ncnc5sc(CC(F)(F)F)cc45)CC3)ccc2n1C(F)C(N)=O (stereo not shown) [Compound 220] | < 100 nM |
| O=C(N1CCCCC1)N1CCN(c2ncnc3sc(CC(F)(F)F)cc23)CC1 [Compound 91] | 500 to 2000 nM |
| N#Cc1cc2cc(CN3CCC(Nc4ncnc5sc(CC(F)(F)F)cc45)CC3)ccc2n1CC(O)(CO)COCC1CCCCC1 (stereo not shown) [Compound 317] | < 100 nM |
| CN1CCN(S(=O)(=O)Nc2ccc(CC(=O)N3CCN(c4ncnc5sc(CC(F)(F)F)cc45)CC3)cc2)CC1 [Compound 55] | < 100 nM |
| N#Cc1[nH]c2ccc(CN3CCC(Nc4ncnc5sc(CC(F)(F)F)cc45)CC3)cc2c1F [Compound 176] | < 100 nM |
| Cc1c(CN2CCC(Nc3ncnc4sc(CC(F)(F)F)cc34)CC2)ccc2c1cc(C#N)n2CCN1CCSCC1 [Compound 360] | < 100 nM |
| CC(C)NCCS(=O)(=O)Nc1ccc(CC(=O)N2CCN(c3ncnc4sc(CC(F)(F)F)cc34)CC2)cc1 [Compound 60] | < 100 nM |
| Cc1cc(CN2CCC(Nc3ncnc4sc(CC(F)(F)F)cc34)CC2)cc2cc(C#N)[nH]c12 [Compound 410] | 100 to 500 nM |
| Cc1nnc(Cn2c(C#N)cc3c(C)c(CN4CCC(Nc5ncnc6sc(CC(F)(F)F)cc56)CC4)ccc32)s1 [Compound 322] | < 100 nM |
| OC(c1cc2c(N3CCN(c4nnc(C(F)(F)F)s4)CC3)ncnc2s1)C(F)(F)F (stereo not shown) [Compound 23] | 500 to 2000 nM |
| Cc1c(CN2CCC(Nc3ncnc4sc(CC(F)(F)F)cc34)CC2)ccc2c1cc(C#N)n2CC(O)(CO)CCCC1CC1 (stereo not shown) [Compound 425] | < 100 nM |
| O=C(Cc1ccccc1)N1CCN(c2ncnc3sc(CC(F)(F)F)cc23)CC1 [Compound 67] | 100 to 500 nM |
| N#Cc1cc2c(OC(F)F)c(CN3CCC(Nc4ncnc5sc(CC(F)(F)F)cc45)CC3)ccc2[nH]1 [Compound 408] | 100 to 500 nM |
| O=C(Cc1ccc(NS(=O)(=O)N2CCOCC2)cc1)N1CCN(c2ncnc3sc(CC(F)(F)F)cc23)CC1 [Compound 53] | < 100 nM |
| Cc1ccccc1CN1CCC(Nc2ncnc3sc(CC(C)(F)F)cc23)CC1 [Compound 155] | 500 to 2000 nM |
| Cc1c(CN2CCC(Nc3ncnc4sc(CC(F)(F)F)cc34)CC2)ccc2c1cc(C#N)n2Cc1cn(C)nn1 [Compound 303] | < 100 nM |
| CC1(C)CN=C(C2C[C@@H]3C[C@H]2CN3c2ncnc3sc(CC(F)(F)F)cc23)S1 (mixture of isomers) [Compound 14] | 100 to 500 nM |
| CC(C(N)=O)n1c(C#N)cc2cc(CN3CCC(Nc4ncnc5sc(CC(F)(F)F)cc45)CC3)ccc21 (stereo not shown) [Compound 247] | 100 to 500 nM |
| FC(F)(F)Cc1cc2c(N3CCN(c4nnc(CCc5ccccc5)s4)CC3)ncnc2s1 [Compound 42] | 500 to 2000 nM |
| O=C(Cc1ccccc1Cl)N1CCN(c2ncnc3sc(CC(F)(F)F)cc23)CC1 [Compound 70] | 100 to 500 nM |
| N#Cc1cc2c(C=O)c(CN3CCC(Nc4ncnc5sc(CC(F)(F)F)cc45)CC3)ccc2n1Cc1cn[nH]c1 [Compound 352] | < 100 nM |
| COc1ccc(CC(=O)N2CCN(c3ncnc4sc(CC(F)(F)F)cc34)CC2)cc1 [Compound 74] | 100 to 500 nM |
| Cc1c(CN2CCC(Nc3ncnc4sc(CC(F)(F)F)cc34)CC2)ccc2c1cc(C#N)n2CC(O)CO (stereo not shown) [Compound 300] | < 100 nM |
